This is an account of results in patent US7368606B2, “Amorphous cinacalcet hydrochloride and preparation thereof” (Teva Pharmaceutical Industries Ltd., priority 2005, dated 2008).

Series [1] is described as follows: Stability of amorphous cinacalcet HCl on storage at ambient temperature (PXRD). Conditions: stored at ambient temperature in a closed bottle for 2 months, hydrochloride. Format: physicochemical. The procedure:
Powder X-Ray powder diffraction data were obtained using a […] powder X-Ray diffractometer model X'TRA equipped with a solid state detector and a variable gonimeter. Copper radiation of 1.5418 Å was used. A round standard aluminum sample holder with round zero background, and cavity of 25(diameter)*0.5(dept) mm. Scanning parameters were in the range of 2-40°2θ and a continuous scan rate of 3°/min.

A short description of series [2]: Water content and solid form of amorphous cinacalcet HCl after exposure to humidity (KF titration, PXRD). The class given is physicochemical. Conditions: 100 percent relative humidity; for Solid form by PXRD after exposure to humidity (physical stability): hydrochloride. The procedure: Powder X-Ray powder diffraction data were obtained using a SCINTAG powder X-Ray diffractometer model X'TRA equipped with a solid state detector and a variable gonimeter. Copper radiation of 1.5418 Å was used. A round standard aluminum sample holder with round zero background, and cavity of 25(diameter)*0.5(dept) mm. Scanning parameters were in the range of 2-40°2θ and a continuous scan rate of 3°/min.
100 mg amorphous cinacalcet HCl was spread as a thin layer, and exposed to 100 percent relative humidity for 8 days. The sample was than tested by PXRD and by Karl Fischer (“KF”) titration. Amorphous cinacalcet HCl was obtained with water content of 1.4 percent.

Take `C[C@@H](NCCCc1cccc(C(F)(F)F)c1)c1cccc2ccccc12.Cl` [Amorphous Cinacalcet HCl, Cinacalcet hydrochloride]: the entries for the “Solid form by PXRD after storage (physical stability)” value in series [1] and in series [1] (listed as Amorphous cinacalcet) were “amorphous content” and “stable under prolonged storage”, respectively. Also, in series [2] (100 mg spread as a thin layer, 8 days), the “Water content by Karl Fischer titration after exposure to humidity” value was 1.4%. Also, the “Solid form by PXRD after exposure to humidity (physical stability)” value in series [2] (8 days, listed as Amorphous cinacalcet) was “stable at high humidity levels”; in series [2] (8 days, listed as amorphous cinacalcet HCl), “Amorphous”. Also, the Hygroscopicity entry in series [2] (as shown in Example 2) was “non-hygroscopic”.
